Where “and” joins values, the source holds several entries; their conditions need not be identical. Equal values may be shown once. Entries after “also recorded” stand apart in the source; their conditions may differ. Read-outs that look alike come from different tables or passages of the source.
Experiments:
CD4^+CD25^− T cells [1] = experiment: CD25 expression by flow cytometry after anti-CD3 stimulation; format: cell-based, mouse; details: anti-CD3 + APCs, 16 hours
Description: (§1) After 16 hours of stimulation, expression of CD25 was analyzed by flow cytometry. Dotted lines represent the staining level of unstimulated cells.

[2] = test system: splenic CD4 and CD8 T cells; experiment: CFSE cell division of anti-CD3-stimulated splenic T cells; format: cell-based, mouse; details: 0.3% alcohol, anti-CD3 + irradiated APCs, 72 hours
Description: (§2) For determination of cell division, T cells were labeled with 1 μM CFSE (Molecular Probes, Eugene, Oreg.) for 15 minutes at 37° C. CFSE-labeled T cells (5×10^5 cells/ml) were cultured with 0.2 μg/ml of anti-CD3 with APCs (T cell-depleted splenocytes, γ-irradiated with 2000 rads, 8×10^5 cells/ml). […] After 72 hours, cells were harvested and stained with antibody against CD4 and CD8. The number of cell divisions was determined by flow cytometry. Exogenous IL-2 was added at 50 units/ml where indicated. For the proliferation assay, ^3H-thymidine (0.5 μCi/well) was added for the last 6 hours of culture. Cytokine assays were performed by enzyme-linked immunoassays as previously described (Singh, N. et al. (1999), J. Immunol. 163:2373-2377).

CD4^+CD25^+ T cells [3] = test system: CD4^+CD25^+ T cells
Description: as §1

splenic CD4^+ T cells = experiment: Anti-CD3-induced elevation of intracellular Ca2+ (Fura2-AM); format: cell-based, mouse; details: added together with stimulating antibody
Description: (C) 1-butanol effect on anti-CD3-induced elevation of intracellular Ca2^+. CD4 T cells were labeled with Fura2-AM and activated with biotin conjugated anti-CD3 and streptavidin. […] Levels of Ca2^+ were determined by the ratio of fluorescence at 340/380 nm.
To further elucidate the role of PLD in T cell activation, TCR proximal signaling events were examined. First, the effect of 1-butanol on the elevation of intracellular Ca^2+ was determined. […] Elevation of intracellular Ca^2+ is required for activation of transcription factors, such as NF-AT, which are essential for CD25 and IL-2 expression (Crabtree, G. R. and Olson, E. N. (2002), Cell 109(Suppl):867-879; Hogan, P. G. et al. (Sep. 15, […]), Genes Dev. 17:2205-[…]).

ERK = experiment: Anti-CD3-induced ERK activation (phospho-ERK staining); format: cell-based, mouse; details: anti-CD3 + APCs, 3 hours
Description: (D) Effect of 1-butanol on antl-CD3-induced ERK activation. CD4 T cells were stimulated with anti-CD3 and APCs for 3 hours and stained with antibody against phospho-ERK. […] Thick lines show the data from stimulated cells and thin lines show data from unstimulated cells.
TCR stimulation also induces activation of the Ras/ERK pathway, and sustained ERK activation is essential for IL-2 production (Iwashima, M. (May, 2003), Immunol. Review 192; T. Koike et al., J. Biol. Chem. 278:15685-15692).

CD4^+CD25^− T cells [4] = experiment: 3H-thymidine proliferation after anti-CD3 stimulation with or without exogenous IL-2; format: cell-based, mouse; details: 0.3%
Description: (§3) (B) 1-butanol effect on the proliferative response of CD4^+CD25^− and CD4^+CD25^+ T cells to anti-CD3 or anti-CD3^+ exogenous IL-2. […] Proliferation of cells was measured as in FIG. 1B.
(§4) (D) CD4^+CD25^− and CD4^+CD25^+ T cells (2×10^4 cells/well) were stimulated by anti-CD3 in the absence (left panel) or presence (right panel) of exogenous IL-2. […] [3H]-thymidine uptake was measured 72 hours later.
as §2
We also examined the effect of 1-alcohol on the proliferation of CD4^+CD25^− and CD4^+CD25^+ cells. CD4^+CD25^− and CD4^+CD25^+ cells were isolated from splenocytes using a MoFlo cell sorter. Each cell type was stimulated with anti-CD3 antibody in the presence of irradiated APCs with or without the addition of exogenous IL-2. Proliferation was measured by ^3H-thymidine incorporation on day 3.

CD4 Foxp3^+ cells = experiment: Foxp3 and CTLA-4 flow cytometry of CD4 T cells expanded with alcohol; format: cell-based, mouse
Description: (B) Foxp3 and CTLA4 levels were determined by flow cytometry analysis of CD4^med, CD4^t-but or CD4^1-but cells at day 1 (upper panels) and day 8 (lower panels).
After 3 days of culture with alcohol, cells were expanded in the medium free of alcohol but containing IL-2 for 4 days and analyzed by flow cytometry with Foxp3 and CTLA-4.

CD4^+CD25^+ T cells [5] = details: 0.3%, activation by anti-CD3 and IL-2
Description: as §3, §4, §2
We also examined the effect of 1-alcohol on the proliferation of CD4^+CD25^− and CD4^+CD25^+ cells. CD4^+CD25^− and CD4^+CD25^+ cells were isolated from splenocytes using a MoFlo cell sorter. […] Proliferation was measured by ^3H-thymidine incorporation on day 3.

CD4^+CD25^− T cells [6] = experiment: In vitro suppression assay; format: cell-based, mouse; details: 1-butanol and anti-CD3 treatment
Description: CD4^+CD25^− T cells (2.5×10^4 cells) were cultured with graded doses of CD4^med cells (open circles), CD4^t-but cells (open squares) or CD4^1-but cells (closed squares) for 72 hours with anti-CD3 antibody and APCs. Proliferation of cells was measured as in (B).
Cells were cultured as in (C) using equal numbers of CD4^+CD25^− cells and CD4^med cells, CD4^1-but cells, or CD4^t-but cells. Production of IL-2 after 24 hours of co-culture was measured.
(H) Effect of CD4^med, CD4^t-but, and CD4^1-but cells on cytokine production by CD4^+25^− T cells. CD4^+25^− T cells were stimulated and co-cultured with CD4^med cells (med), CD4^t-but cells (t-but), or CD4^1-but cells (1-but) as described in FIG. 1D. IL-4 and IFN-γ in the culture supernatants were measured by ELISA.
Suppression of freshly isolated CD4^+CD25^− cells was measured as in FIG. 1C.
Suppressive effects were measured by ^3H-thymidine incorporation or by cytokine production.

CD4^+CD25^− T cells [7] = test system: CD4^+CD25^− T cells
Description: (I) Cytokine production by 1-but and t-but-treated CD4^+25^− and CD4^+25^+ T cells. CD4^+25^− and CD4^+25^+ T cells were stimulated as described in FIG. 3A. The same supernatants were used to measure the amount of IL-4 (left panel) and IFN-γ (right panel). Closed bars show medium-treated T cells, gray bars show t-but- treated T cells, and open bars show 1-but-treated T cells.
(A) Effect of 1-butanol on anti-CD3-induced IL-2 production. […] IL-2 production was determined by ELISA of culture supernatants obtained after 24 hours of stimulation.
as §2

PLD [8] = details: Thibault 2000; Grenier 2003; cited from earlier work
PLD [9] = experiment: TCR-induced PLD activity (3H-oleate labelling, PA and Pet by TLC); format: cell-based, mouse; details: 100 μM, plate-bound anti-CD3 40 minutes, 0.5% ethanol, primary T cells
From the text: FIG. 5 Effect of adenosine on TCR-induced PLD activation. (A) Phosphatidic acid production by primary CD4 T cells stimulated with anti-CD3 antibodies in the presence of ethanol (open bar) and adenosine (closed bar) compared with unstimulated T cells. (B) Phosphatidylethanol (Pet) production by primary CD4 Mouse CD4 T cells stimulated with anti-CD3 antibodies in the presence of ethanol (open bar) and adenosine (closed bar) compared with unstimulated T cells.
Mouse CD4 T cells were labeled with ^3H-oleate to measure PLD activity (Zheng, et al. (2003), Biochim. Biophys. Acta. 1643(1-3):25-36). Cells were then washed and activated by plate-bound anti-CD3 for 40 minutes in the presence of 0.5% of ethanol (open bar). Effect of adenosine was examined using the medium containing 100 μM of adenosine (closed bar). Cells were harvested and lipid extracts of cells were separated on TLC plates and bands corresponding to phosphatidic acid (PA) (FIG. 5A) and phosphatidylethanol (Pet) (FIG. 5B) were excised and counted by liquid scintillation.

[10] = anti-CD3 + APCs, 3H-thymidine at 72 hours

CCCCO [1-butanol]
Numbers of live cells obtained from 1 × 10^6 CD4^+ T cells (CD4^+ T cells): 3.1 ± 0.3 ×10^6 and 2.5 ± 0.5 ×10^6 and 3.4 ± 0.5 ×10^6
cells recovered from 1×10^6 CD4^+CD25^− cells (CD4^+ T cells): 5×10^5 cells
cells recovered from 1×10^6 total CD4^+ cells (CD4^+ T cells): 3.6×10^6 cells
decrease in final yield on removal of CD25^+ T cells prior to treatment (CD4^+ T cells): 80%
viability or surface antigen expression after pre-incubation (CD4^+ T cells): no difference
expression of CD25 by CD4^+CD25^− T cells (CD4^+CD25^− T cells [1]): blocked the expression
anti-CD3 induced cell division [2]: abrogated cell division
up-regulation of CD25 expression in CD4^+CD25^+ T cells (CD4^+CD25^+ T cells [3]; anti-CD3 + APCs, 16 hours): not affected
expression of CD69 by CD4^+CD25^+ T cells (CD4^+CD25^+ T cells [3]; not shown): did not impair
anti-CD3-induced elevation of intracellular Ca^2+ (splenic CD4^+ T cells): substantially impaired
CD3-induced elevation of phosphorylated ERK (ERK): abolished
reduction of proliferation of CD4^+CD25^− cells (CD4^+CD25^− T cells [4]; [10]): 80%
proliferation of treated CD4^+CD25^− cells on addition of exogenous IL-2 (CD4^+CD25^− T cells [4]; anti-CD3 + exogenous IL-2): did not restore proliferation; also recorded: did not rescue the proliferation
expansion of Foxp3^+ cells (total cell number) (CD4 Foxp3^+ cells; in one week): more than 10 fold
effect on proliferation of CD4^+CD25^+ T cells (CD4^+CD25^+ T cells [5]): no effect
suppressive activity of population expanded from total CD4^+ T cells (CD4^+CD25^− T cells [6]): strong suppressive activity
suppressive function of population expanded from CD4^+ T cells with CD25^+ cells removed (CD4^+CD25^− T cells [6]): no suppressive function
production of IL-2 by CD4^+CD25^− T cells (CD4^+CD25^− T cells [7]; anti-CD3, 24 hours, ELISA): blocked production
IFN-γ production (CD4^+CD25^− T cells [7]; anti-CD3, ELISA): abrogated
IL-4 production (CD4^+CD25^− T cells [7]; anti-CD3, ELISA): abrogated

Nc1ncnc2c1ncn2[C@@H]1O[C@H](CO)[C@@H](O)[C@H]1O [adenosine]
PLD activation in neutrophils (PLD [8]): inhibit PLD activation
PLD activity induced by TCR stimulation (PLD [9]): completely abrogated

CC(C)(C)O [t-butanol, Tert-butanol]
Numbers of live cells obtained from 1 × 10^6 CD4^+ T cells (CD4^+ T cells; 0.3% alcohol, anti-CD3 + APCs + IL-2, day 7, mean +/− standard deviation, experiments 1-3): 18.5 ± 2.1 ×10^6 and 13 ± 2 ×10^6 and 14 ± 2 ×10^6
expression of CD25 by CD4^+CD25^− T cells (CD4^+CD25^− T cells [1]): did not elicit a significant effect
anti-CD3 induced cell division [2]: no significant effect
anti-CD3-induced elevation of intracellular Ca^2+ (splenic CD4^+ T cells): No significant effect
CD3-induced elevation of phosphorylated ERK (ERK): no detectable effect
effect on proliferation of CD4^+CD25^− cells (CD4^+CD25^− T cells [4]; [10]): no significant effect
cells expressing Foxp3 and CTLA-4 (in words) (CD4 Foxp3^+ cells; 3 days with 0.3% alcohol, then 4 days IL-2 without alcohol): almost no cells

— patent US20060093580A1, “Tolerogenic vaccine and method” (priority 2004, published 2006)
